Experimental data reported in patent US20110201596A1, “Methods for Providing Oxidatively Stable Ophthalmic Compositions” (priority 2005, published 2011).
Where a name gives a salt, the structure may show the parent alone.

Test: Stability of ketotifen fumarate in borate buffered saline over autoclave cycles, analysed by HPLC
Type: physicochemical
Conditions: for % ketotifen: no PAA; for % ketotifen Unsparged: Example 3: buffer with poly(acrylic acid); for % ketotifen Nitrogen Sparged: Example 4: buffer with poly(acrylic acid); for ketotifen stability: after autoclaving
Description: A buffer solution was formed by dissolving 8.3 gm NaCl (from Sigma Aldrich), 9.1 gm boric acid (from Mallinckrodt) and 1 gm sodium borate (from Mallinckrodt) in 1 L deionized water (from Milli Q). […] Ketotifen fumarate (from Sigma Aldrich) was added to prepare a solution of approximately 80 ppm in the buffer solution. The ketotifen solution (3 mL) was placed in vials, autoclaved for the number of cycles shown in Table 1, below and analyzed as a function of autoclave cycle (3 replicate per autoclave cycle) using HPLC using an HP1100 and an Agilent Zorbax Eclipse XDB-C18 and Rapid Resolution HT 50×4.6 mm×1.8μ column and the following conditions:
Mobile Phase: • Eluent A: 17% acetonitrile in 0.025 M dihydrogen potassium phosphate buffer • 0.2% triethylamine, 0.13% o-phosphoric acid • Eluent B: 50% acetonitrile in 0.025 M dihydrogen potassium phosphate buffer • 0.2% triethylamine, 0.13% o-phosphoric acid
Example 1 was repeated, except that the buffer solution was sparged (with nitrogen) overnight (˜12 hrs) at about 370 standard cubic centimeter per minute (SCCM) and subsequently transferred to a nitrogen box (<0.5% oxygen). The ketotifen solution of about 90 ppm was prepared and placed in vials as described above, but in nitrogen box. The vials were autoclaved and analyzed as described in Example 1.
Examples 1 and 2 was repeated, except that 10 gm of poly(acrylic acid) (PAA, Mw, 225,000, from Polysciences, Inc., 20% in water) was added to the buffer solution. The vials were autoclaved and analyzed as described in Example 1.

- % ketotifen (Example 1: ~80 ppm in buffer pH 7.65, unsparged, autoclave cycle 0): 100%
- % ketotifen (Example 1: ~80 ppm in buffer pH 7.65, unsparged, autoclave cycle 1): 0%
- % ketotifen (Example 1: ~80 ppm in buffer pH 7.65, unsparged, autoclave cycle 2): 0%
- % ketotifen (Example 1: ~80 ppm in buffer pH 7.65, unsparged, autoclave cycle 3): 0%
- % ketotifen (Example 2: ~90 ppm, buffer nitrogen sparged ~12 hrs, nitrogen box, autoclave cycle 0): 100%
- % ketotifen (Example 2: ~90 ppm, buffer nitrogen sparged ~12 hrs, nitrogen box, autoclave cycle 1): 98%
- % ketotifen (Example 2: ~90 ppm, buffer nitrogen sparged ~12 hrs, nitrogen box, autoclave cycle 2): 98%
- % ketotifen (Example 2: ~90 ppm, buffer nitrogen sparged ~12 hrs, nitrogen box, autoclave cycle 3): 98%
- % ketotifen Unsparged (autoclave cycle 0): 100%
- % ketotifen Unsparged (autoclave cycle 1): 94%
- % ketotifen Unsparged (autoclave cycle 2): 81%
- % ketotifen Unsparged (autoclave cycle 3): 66%
- % ketotifen Nitrogen Sparged (autoclave cycle 0): 100%
- % ketotifen Nitrogen Sparged (autoclave cycle 1): 99%
- % ketotifen Nitrogen Sparged (autoclave cycle 2): 99%
- % ketotifen Nitrogen Sparged (autoclave cycle 3): 98%
- ketotifen stability (buffer sparged and solution kept under nitrogen (Table 2)): 98%
- ketotifen stability (unsparged buffer (Table 1)): 0%
Structure (SMILES): CN1CCC(=C2c3ccccc3CC(=O)c3sccc32)CC1 [ketotifen, Ketotifen fumarate]
